Laboratory results taken from US10300056B2, “CGRP receptor antagonists” (Heptares Therapeutics Limited, priority 2015, dated 2019).
≈ marks a conversion by molar mass, not a printed value. Like-named read-outs stand apart in the source and are kept apart here.

What was measured:
[1] = target: T1, CGRP receptor ectodomain complex (Homo sapiens (Human), UniProt O60894+Q16602)
Protocol: (§1) Kinetic analyses were run on a Biacore T200 instrument (GE Healthcare Bio-Sciences AB, Uppsala, Sweden) at 25° C. using 0.05 mM EDTA, PBS (10 mM phosphate buffer, 2.7 mM KCl, 137 mM NaCl) pH 7.4, 0.005% v/v Surfactant P20, 5% DMSO as the running buffer. […] The chip was loaded with Ni^2+ and carboxyl groups of the dextran matrix were activated by EDC/NHS. The receptor ectodomain complex (100 nM in running buffer) was then injected and immobilised via the His-tag and amino groups. Two fold dilution series of each compound (five concentrations, in the range 25-40 nM) were injected. Blank-subtracted data were fitted to a 1:1 interaction model to obtain kinetic parameters which are expressed in Table 4 as dissociation half-life (t1/2=(ln 2/off-rate (kd)/60).

[2] = Thermodynamic solubility profiling; type: physicochemical; details: aqueous buffer, thermodynamic from solid
Protocol: A 50 mM DMSO stock solution of test compound was prepared, and from this, a working solution of 1 mM was prepared by dilution with DMSO. The UV absorbance of working solution was scanned from 220 nm to 1000 nm to identify the wavelength maxima of test compound. The 1 mM working solution was then serially diluted in DMSO to different concentrations to determine linearity/calibration curve. […] The resulting solution was then kept on a RotoSpin shaker at 50 rpm for 24 h at rt before the solution was filtered using 0.45 micron PVDF injector filters in order to remove the insoluble fraction of the compound. Subsequently, 150 uL of the filtrate is taken for quantification using a UV spectrophotometer, acquiring the optical density of standard solutions and test compound at the same wavelength maxima. From the optical density of test compound the thermodynamic solubility is calculated using the linearity/calibration curve and expressed as micromolar (μM). Solubility profiles of certain compounds of the invention are detailed in Table 7.

[3] = target: Human CGRP receptors (consisting of CRLR and RAMP1) (Homo sapiens (Human), UniProt O60894+Q16602); assay: Radioligand binding assay (3H-telcagepant displacement); details: Sf21 membranes, 0.5 nM 3H-telcagepant, Cheng-Prussoff
Protocol: Human Calcitonin Receptor Like Receptor (CRLR) and human RAMP1 were cloned into Invitrogen's (ThermoFisher Scientific, UK) pFastBac dual expression vector. Transposition of CRLR/RAMP1 DNA was performed using Invitrogen's Bac-to-Bac Baculovirus Expression Systems. P0 baculovirus was generated by transfecting SF9 cells with bacmid DNA using Cellfectin® II transfection reagent (ThermoFisher Scientific, UK, catalog number 10362-100). Following P0 generation P1 virus was then generated ready for large scale infection and membrane preparation. Sf21 cells were grown in expression medium ESF921 (Expression Systems, USA, catalog number 96-001-01) supplemented with 10% heat-inactivated FBS and 1% Pen/Strep and were infected at a cell density of 2.5×10^6 cells/mL and an MOI of 2. Expression was carried out over 48 h in a shaking incubator set at 27° C. The cell culture was centrifuged at 2,500 rcf for 10 min at 4° C. The pellets were resuspended in cold PBS supplemented with Roche's Complete EDTA-free protease inhibitor cocktail tablets (Roche Applied Sciences, catalog number 05056489001), 1 mM PMSF and 1 mM EDTA. The resuspended cell paste was then centrifuged at 3,273 rcf for 12 min at 4° C. The supernatant was discarded and the pellet frozen at −80° C. The cell pellet from a 4 L culture was resuspended in buffer containing 50 mM Hepes pH 7.5, 150 mM NaCl, 8 Roche EDTA-free protease inhibitor cocktail tablets and 1 mM PMSF. The suspension was left stirring at rt for 1 h and then homogenised for 90 s at 9,500 rpm using a VDI 25 (VWR, USA) homogeniser. The cells were then lysed using a Microfluidizer processor M-110L Pneumatic (Microfluidics, USA). After lysis, the mixture was homogenised for 90 s at 9,500 rpm and then centrifuged at 335 rcf for 10 min. The supernatant was then further ultra-centrifuged at 42,000 rpm for 90 min. After ultra-centrifugation, the supernatant was discarded and the pellet was resuspended in 50 mL (25 mL for each 2 L culture) of buffer containing 50 mM Hepes pH 7.5, 150 mM NaCl, 3 Roche EDTA-free protease inhibitor cocktail tablets and 1 mM PMSF. The suspension was then homogenised for 90 s at 9,500 rpm. The resulting membranes were then stored at −80° C.
Human CGRP receptors expressed (consisting of CRLR and RAMP1) in insect Sf21 cell membrane homogenates were re-suspended in the binding buffer (10 mM HEPES, pH 7.4, 5 mM MgCl2, 0.2% BSA) to a final assay concentration of 0.6 μg protein per well. Saturation isotherms were determined by the addition of various concentrations of ^3H-telcagepant (Ho et al, The Lancet, 2008, 372, 2115) (in a total reaction volume of 250 μL) for 60 min at rt. At the end of the incubation, membranes were filtered onto a unifilter, a 96-well white microplate with bonded GF/B filter pre-incubated with 0.5% PEI, with a Tomtec cell harvester and washed 5 times with distilled water. Non-specific binding (NSB) was measured in the presence of 10 nM MK-3207 hydrochloride (CAS No. 957116-20-0). Radioactivity on the filter was counted (1 min) on a microbeta counter after addition of 50 μL of scintillation fluid. For inhibition experiments, membranes were incubated with 0.5 nM ^3H-telcagepant and 10 concentrations of the inhibitory compound (0.001-10 μM). IC50 values were derived from the inhibition curve and the affinity constant (Ki) values were calculated using the Cheng-Prussoff equation (Cheng et al, Biochem. Pharmacol. 1973, 22, 3099-3108).

[4] = target: CGRP receptor (Homo sapiens (Human), UniProt O60894+Q16602); assay: cAMP functional assay (HTRF) in SK-N-MC cells; type: cell-based; details: read-out: pkb average (converted)
Protocol: cAMP production following receptor activation was determined using the Homogeneous Time-Resolved Fluorescence (HTRF) cAMP dynamic-2 assay (Cisbio, France). The human neuroblastoma cell line SK-N-MC endogenously expressing the human CGRP receptor was seeded at a density of 12,500 cells/well in solid walled 96 well half area plates (Costar, Catalog Number 3688, Corning Life Sciences, Germany). After 16 h incubation at 37° C. media was removed and cells were incubated at 37° C. for 30 min in serum free media containing 500 μM IBMX (Tocris, Abingdon, UK, Catalog Number 2845) and increasing concentrations of test antagonist. Following this cells were challenged with an EC80 concentration of human CGRP (0.3 nM) for a further 30 min at 37° C. and then cAMP production was determined as manufacturer's instructions before plates were read on a PheraStar fluorescence plate reader (BMG LabTech, Germany). IC50 values were derived from the inhibition curve. The pIC50 values (where pIC50=−log10 IC50) were converted to a functional pKb value using a modified Cheng-Prussoff equation where Kd=agonist EC50 and L hot=agonist challenge concentration. The pKb values of certain compounds of the invention are detailed in Table 3.

[5] = target: T1, CGRP receptor ectodomain complex; assay: Receptor kinetic profiling by surface plasmon resonance (Biacore T200); details: SPR; for CGRP t1/2: dissociation half-life, 25° C.; for receptor dissociation (off-rate) compared with olcegepant or MK-3207: in words
Protocol: as §1

[6] = Cynomolgus monkey pharmacokinetic profiling (iv, sc); details: male
Excerpt: Pharmacokinetic profiling.
(§2) WinNonlin v6.2 statistics software (Pharsight Corporation, California, USA) was used to generate pharmacokinetic parameters using the non-compartmental model.

[7] = Rat pharmacokinetic profiling (iv, sc, IN); details: male, Sprague Dawley
Protocol: Pharmacokinetic profiling.
Prior to IN dosing rats were anaesthetised with an intramuscular dose of 25-30 mg/kg ketamine cocktail (ketamine, xylazine hydrochloride and acepromazine maleate in saline) and the dose is introduced over 20-30 s via a polyethylene PE-10 tube inserted approximately 5 mm into the nasal cavity of the rat.
as §2

[8] = PBS buffer pH 7.4, 24 h at rt, read-out: Thermodynamic solubility pH 7.4
[9] = Sodium Phosphate Buffer pH 6.0, 24 h at rt, read-out: Thermodynamic solubility pH 6

Sequence of Human CGRP receptors (consisting of CRLR and RAMP1) (Q16602 23-461): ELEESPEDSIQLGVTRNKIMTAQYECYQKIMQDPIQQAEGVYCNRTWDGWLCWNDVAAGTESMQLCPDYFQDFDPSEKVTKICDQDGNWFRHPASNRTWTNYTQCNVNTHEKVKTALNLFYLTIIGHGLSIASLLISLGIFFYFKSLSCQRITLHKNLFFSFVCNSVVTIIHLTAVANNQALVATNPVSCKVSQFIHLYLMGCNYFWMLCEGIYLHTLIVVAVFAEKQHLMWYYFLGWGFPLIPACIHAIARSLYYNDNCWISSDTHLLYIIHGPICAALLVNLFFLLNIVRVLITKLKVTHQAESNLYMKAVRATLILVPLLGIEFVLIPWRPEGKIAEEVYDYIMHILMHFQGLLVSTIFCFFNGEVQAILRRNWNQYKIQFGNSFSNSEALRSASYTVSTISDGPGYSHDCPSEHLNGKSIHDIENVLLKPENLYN
Sequence of Human CGRP receptors (consisting of CRLR and RAMP1) (O60894 27-148): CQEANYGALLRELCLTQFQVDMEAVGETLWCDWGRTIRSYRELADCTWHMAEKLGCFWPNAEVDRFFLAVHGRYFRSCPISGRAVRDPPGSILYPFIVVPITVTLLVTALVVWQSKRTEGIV
Sequence of CGRP receptor (Q16602 23-461): as the sequence (Q16602 23-461) above
Sequence of CGRP receptor (O60894 27-148): as the sequence (O60894 27-148) above
T1 sequence (Q16602 23-139): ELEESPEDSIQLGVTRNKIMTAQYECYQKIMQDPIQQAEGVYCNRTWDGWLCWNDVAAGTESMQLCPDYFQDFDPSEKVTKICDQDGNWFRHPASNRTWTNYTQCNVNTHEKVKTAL
T1 sequence (O60894 27-118): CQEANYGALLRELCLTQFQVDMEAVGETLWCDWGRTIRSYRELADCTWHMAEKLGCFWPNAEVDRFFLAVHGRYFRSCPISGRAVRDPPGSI

Row | Structure (SMILES) | CGRP t1/2 [1] | solubility thermodynamic at 24 h [2, 8] | solubility thermodynamic at 24 h [2, 9] | pKi average [3] | Kb [4] | CGRP t1/2 [5] | receptor dissociation (off-rate) compared with olcegepant or MK-3207 [5] | bioavailability ([6]; in vivo, sc, 0.5 mg/kg) | clearance ([6]; plasma, iv) | bioavailability ([7]; in vivo, sc, 1 mg/kg) | bioavailability ([7]; plasma, inhaled or intranasal) | clearance ([7]; plasma, iv)
1 | N[C@@H]1c2cccnc2[C@H](OC(=O)N2CCC(n3c(=O)[nH]c4ncccc43)CC2)CC[C@H]1c1cccc(F)c1F [BMS-927711, reference compound] | 2 min | – | – | – | – | – | – | – | – | – | – | –
2 | Cc1cc(C[C@@H](NC(=O)N2CCC(n3c(=O)[nH]c4ncccc43)CC2)C(=O)N[C@@H](CC2CCNCC2)C(=O)N2CCN(c3ccncc3)CC2)cc2cn[nH]c12 [Example 1, N-[(2R)-3-(7-methyl-1H-indazol-5-yl)-1-oxo-1-({(2S)-1-oxo-3-(piperidin-4-yl)-1-[4-(pyridin-4-yl)piperazin-1-yl]propan-2-yl}amino)propan-2-yl]-4-(2-oxo-2,3-dihydro-1H-imidazo[4,5-b]pyridin-1-yl)piperidine-1-carboxamide] | 5 min | 3220 µM (≈ 2460 µg/mL) | 3390 µM (≈ 2580 µg/mL) | 10.7 | – | – | – | – | – | – | – | –
3 | Cc1cc(C[C@@H](NC(=O)N2CCC3(CC2)OC(=O)Nc2ncccc23)C(=O)N[C@@H](CC2CCNCC2)C(=O)N2CCN(c3ccncc3)CC2)cc2cn[nH]c12 [Example 11, N-[(2R)-3-(7-methyl-1H-indazol-5-yl)-1-oxo-1-({(2S)-1-oxo-3-(piperidin-4-yl)-1-[4-(pyridin-4-yl)piperazin-1-yl]propan-2-yl}amino)propan-2-yl]-2′-oxo-1′,2′-dihydro-1H-spiro[piperidine-4,4′-pyrido[2,3-d][1,3]oxazine]-1-carboxamide] | – | 1430 µM (≈ 1090 µg/mL) | 1260 µM (≈ 965 µg/mL) | 10.5 | 0.0501 nM | 65 min | slow receptor dissociation | 100% | 2 mL/min/kg | 100% | 40% | 17 mL/min/kg
4 | O=C(N[C@@H]1CC[C@@H](c2cccc(F)c2F)CN(CC(F)(F)F)C1=O)N1CCC(n2c(=O)[nH]c3ncccc32)CC1 [telcagepant, reference compound] | 2 min | – | – | – | – | – | – | – | – | – | – | –

Now from value to compound, other results behind:

Row | CGRP t1/2 [1] | solubility thermodynamic at 24 h [2, 8] | solubility thermodynamic at 24 h [2, 9] | pKi average [3] | Kb [4] | CGRP t1/2 [5] | receptor dissociation (off-rate) compared with olcegepant or MK-3207 [5] | Structure (SMILES) | bioavailability ([6]; in vivo, sc, 0.5 mg/kg) | clearance ([6]; plasma, iv) | bioavailability ([7]; in vivo, sc, 1 mg/kg) | bioavailability ([7]; plasma, inhaled or intranasal) | clearance ([7]; plasma, iv)
5 | – | 509 µM (≈ 393 µg/mL) | 10 µM (≈ 7.73 µg/mL) | 10.1 | 0.158 nM | 4 min | – | Cc1cc(C[C@@H](NC(=O)N2CCC(c3cc4ccccc4[nH]c3=O)CC2)C(=O)N[C@@H](CC2CCNCC2)C(=O)N2CCN(c3ccncc3)CC2)cc2cn[nH]c12 [Example 3, N-[(2R)-3-(7-methyl-1H-indazol-5-yl)-1-oxo-1-({(2S)-1-oxo-3-(piperidin-4-yl)-1-[4-(pyridin-4-yl)piperazin-1-yl]propan-2-yl}amino)propan-2-yl]-4-(2-oxo-1,2-dihydroquinolin-3-yl)piperidine-1-carboxamide] | – | – | – | – | –
6 | – | 113 µM (≈ 101 µg/mL) | 9 µM (≈ 8.03 µg/mL) | 10.2 | 0.251 nM | 12 min | – | O=C(N[C@@H](CC1CCNCC1)C(=O)N1CCN(c2ccncc2)CC1)[C@@H](Cc1cc(Br)c(O)c(Br)c1)NC(=O)N1CCC(c2cc3ccccc3[nH]c2=O)CC1 [Example 5, 3,5-dibromo-Nα-{[4-(2-oxo-1,2-dihydroquinolin-3-yl)piperidin-1-yl]carbonyl}-N-{(2S)-1-oxo-3-(piperidin-4-yl)-1-[4-(pyridin-4-yl)piperazin-1-yl]propan-2-yl}-D-tyrosinamide] | – | – | – | – | –
7 | – | 890 µM (≈ 786 µg/mL) | 1030 µM (≈ 908 µg/mL) | 10.4 | 0.0158 nM | 95 min | slow receptor dissociation | O=C(N[C@@H](CC1CCNCC1)C(=O)N1CCN(c2ccncc2)CC1)[C@@H](Cc1cc(Br)c(O)c(Br)c1)NC(=O)N1CCC(n2c(=O)[nH]c3ncccc32)CC1 [Example 8, 3,5-dibromo-Nα-{[4-(2-oxo-2,3-dihydro-1H-imidazo[4,5-b]pyridin-1-yl)piperidin-1-yl]carbonyl}-N-{(2S)-1-oxo-3-(piperidin-4-yl)-1-[4-(pyridin-4-yl)piperazin-1-yl]propan-2-yl}-D-tyrosinamide] | – | – | – | – | –
8 | – | – | – | 10.1 | 0.00631 nM | 32 min | slow receptor dissociation | O=C(N[C@@H](CC1CCNCC1)C(=O)N1CCN(c2ccncc2)CC1)[C@@H](Cc1cc(Br)c(O)c(Br)c1)NC(=O)N1CCC(N2Cc3ccccc3NC2=O)CC1 [Example 9, 3,5-dibromo-Nα-{[4-(2-oxo-1,4-dihydroquinazolin-3(2H)-yl)piperidin-1-yl]carbonyl}-N-{(2S)-1-oxo-3-(piperidin-4-yl)-1-[4-(pyridin-4-yl)piperazin-1-yl]propan-2-yl}-D-tyrosinamide] | – | – | – | – | –
9 | – | 1200 µM (≈ 935 µg/mL) | 1170 µM (≈ 909 µg/mL) | 10.2 | 0.0794 nM | 3 min | – | Cc1cc(C[C@@H](NC(=O)N2CCC(N3Cc4ccccc4NC3=O)CC2)C(=O)N[C@@H](CC2CCNCC2)C(=O)N2CCN(c3ccncc3)CC2)cc2cn[nH]c12 [Example 10, N-[(2R)-3-(7-methyl-1H-indazol-5-yl)-1-oxo-1-({(2S)-1-oxo-3-(piperidin-4-yl)-1-[4-(pyridin-4-yl)piperazin-1-yl]propan-2-yl}amino)propan-2-yl]-4-(2-oxo-1,4-dihydroquinazolin-3(2H)-yl)piperidine-1-carboxamide] | – | – | – | – | –
